Experimental data as given in patent US20220378923A1, “BET DEGRADER” (KYOWA KIRIN CO., LTD., priority 2019, published 2022).

What follows are molecules tested on SU-DHL-4 cells (assay: Inhibitory effect on cell viability in SU-DHL-4 cell line (Test Example 1)). Conditions: Homo sapiens; SU-DHL-4 cells, 72 hours, Cell Counting Kit-8; concentration showing 90% inhibition of cell viability; read-out: SU-DHL-4 Cell Viability Inhibition Rate IC90.
Type: cell-based, human
Procedure, shortened: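 SU-DHL-4 cells were grown at 37° C. under 5% CO2 in RPMI1640 with 10 vol % heat-inactivated FBS plus penicillin/streptomycin, seeded and precultured for 18 to 25 hours, then exposed to test compound at 0.1 vol % DMSO for 72 hours. Viability was read with Cell Counting Kit-8 by absorbance at 450 nm.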

| SMILES | IC90 [nM] |
| --- | --- |
| CCC(=O)N1c2ccccc2[C@H](Nc2ccc(NC(=O)CNC(=O)Nc3ccc(N[C@@H]4C[C@H](C)N(C(=O)CC)c5ccccc54)cc3)cc2)C[C@@H]1C (relative stereo) [Compound 6j, N-(4-(((2S*,4R*)-2-Methyl-1-propionyl-1,2,3,4-tetrahydroquinolin-4-yl)amino)phenyl)-2-(3-(4-(((2S*,4R*)-2-methyl-1-propionyl-1,2,3,4-tetrahydroquinolin-4-yl)amino)phenyl)ureido)acetamide] | 0.13 |
| CCC(=O)N1c2ccccc2[C@H](Nc2ccc(-n3cc(CNC(=O)C4CCN(Cc5cc(O)cc(-c6c(C)noc6C)c5)CC4)nn3)cc2)C[C@@H]1C [Compound 16d, 1-(3-(3,5-Dimethylisoxazol-4-yl)-5-hydroxybenzyl)-N-((1-(4-(((2S,4R)-2-methyl-1-propionyl-1,2,3,4-tetrahydroquinolin-4-yl)amino)phenyl)-1H-1,2,3-triazol-4-yl)methyl)piperidine-4-carboxamide] | 0.17 |
| CCC(=O)N1c2ccccc2[C@H](Nc2ccc(-c3cnn(CCNC(=O)C4CCN(Cc5cc(O)cc(-c6c(C)noc6C)c5)CC4)c3)cc2)C[C@@H]1C [Compound 17i, 1-(3-(3,5-Dimethylisoxazol-4-yl)-5-hydroxybenzyl)-N-(2-(4-(4-(((2S,4R)-2-methyl-1-propionyl-1,2,3,4-tetrahydroquinolin-4-yl)amino)phenyl)-1H-pyrazol-1-yl)ethyl)piperidine-4-carboxamide] | 1.45 |
| CCC(=O)N1c2ccccc2[C@H](Nc2ccc(NC(=O)NCC(=O)NC3CCN(Cc4cc(O)cc(-c5c(C)noc5C)c4)CC3)cc2)C[C@@H]1C [Compound 17j, N-(1-(3-(3,5-Dimethylisoxazol-4-yl)-5-hydroxybenzyl)piperidin-4-yl)-2-(3-(4-(((2S,4R)-2-methyl-1-propionyl-1,2,3,4-tetrahydroquinolin-4-yl)amino)phenyl)ureido)acetamide] | 29 |
| CCC(=O)N1c2ccccc2[C@H](Nc2ccc(NC(=O)CNC(=O)NC3CCN(Cc4cc(O)cc(-c5c(C)noc5C)c4)CC3)cc2)C[C@@H]1C [Compound 17k, 2-(3-(1-(3-(3,5-Dimethylisoxazol-4-yl)-5-hydroxybenzyl)piperidin-4-yl)ureido)-N-(4-(((2S,4R)-2-methyl-1-propionyl-1,2,3,4-tetrahydroquinolin-4-yl)amino)phenyl)acetamide] | 43.7 |

Same assay, conditions: SU-DHL-4 cells, 72 hours, Cell Counting Kit-8; concentration showing 90% inhibition of cell viability; read-out: SU-DHL-4 Cell Viability Inhibition Rate IC90

| SMILES | IC90 [nM] |
| --- | --- |
| CCC(=O)N1c2ccccc2[C@H](Nc2ccc(C(=O)NCCCNC(=O)c3ccc(Cn4c(C(=O)OCCN(C)C)cc5c4CCCC5=O)cc3)cc2)C[C@@H]1C [Compound 15e, 2-(Dimethylamino)ethyl 1-(4-((3-(4-(((2S,4R)-2-methyl-1-propionyl-1,2,3,4-tetrahydroquinolin-4-yl)amino)benzamide)propyl)carbamoyl)benzyl)-4-oxo-4,5,6,7-tetrahydro-1H-indole-2-carboxylate] | 34 |
| CCC(=O)N1c2ccccc2[C@H](Nc2ccc(C(=O)NC3CN(C(=O)c4ccc(C5=N[C@@H](CC(=O)OCCN(C)C)c6nnc(C)n6-c6sc(C)c(C)c65)cc4)C3)cc2)C[C@@H]1C [Compound 13b, 2-(Dimethylamino)ethyl 2-((S)-2,3,9-trimethyl-4-(4-(3-(4-(((2S,4R)-2-methyl-1-propionyl-1,2,3,4-tetrahydroquinolin-4-yl)amino)benzamide)azetidine-1-carbonyl)phenyl)-6H-thieno[3,2-f][1,2,4]triazolo[4,3-a][1,4]diazepin-6-yl)acetate] | 3.5 |
| CCC(=O)N1c2ccccc2[C@H](Nc2ccc(C(=O)NCCCNC(=O)C3CCC(N[C@@H]4C[C@H](C)N(C(=O)CC)c5ccccc54)CC3)cc2)C[C@@H]1C (relative stereo) [Compound 7m, 4-(((2S,4R)-2-Methyl-1-propionyl-1,2,3,4-tetrahydroquinolin-4-yl)amino)-N-(3-((1R,4r)-4-(((2S*,4R*)-2-methyl-1-propionyl-1,2,3,4-tetrahydroquinolin-4-yl)amino)cyclohexane-1-carboxamide)propyl)benzamide] | 20.3 |
| CCC(=O)N1c2ccccc2[C@H](Nc2ccc(NC(=O)COCC(=O)NC3CCC(N[C@@H]4C[C@H](C)N(C(=O)CC)c5ccccc54)CC3)cc2)C[C@@H]1C (stereo partly drawn) [Compound 8b, N-((1R,4r)-4-(((2S,4R)-2-Methyl-1-propionyl-1,2,3,4-tetrahydroquinolin-4-yl)amino)cyclohexyl)-2-(2-((4-(((2S,4R)-2-methyl-1-propionyl-1,2,3,4-tetrahydroquinolin-4-yl)amino)phenyl)amino)-2-oxyethoxy)acetamide] | 13.9 |
| CCC(=O)N1c2ccccc2[C@H](Nc2ccc(NC(=O)c3cccc(NC(=O)c4ccc(N[C@@H]5C[C@H](C)N(C(=O)CC)c6ccccc65)cc4)c3)cc2)C[C@@H]1C (relative stereo) [Compound 2j, 3-(4-{[(2S,4R)-2-Methyl-1-propionyl-1,2,3,4-tetrahydroquinolin-4-yl]amino}benzamide)-N-(4-{[(2S*,4R*)-2-methyl-1-propionyl-1,2,3,4-tetrahydroquinolin-4-yl]amino}phenyl)benzamide] | 0.36 |
| CCC(=O)N1c2ccccc2[C@H](Nc2ccc(-c3ccc(CNC(=O)C4CCC(N[C@@H]5C[C@H](C)N(C(=O)CC)c6ccccc65)CC4)s3)cc2)C[C@@H]1C (relative stereo) [Compound 8e, (1R,4R)-4-(((2S*,4R*)-2-Methyl-1-propionyl-1,2,3,4-tetrahydroquinolin-4-yl)amino)-N-((5-(4-(((2S,4R)-2-methyl-1-propionyl-1,2,3,4-tetrahydroquinolin-4-yl)amino)phenyl)thiophen-2-yl)methyl)cyclohexane-1-carboxamide] | 0.2 |
| CCC(=O)N1c2ccccc2[C@H](Nc2ccc(-c3cnn(CCNC(=O)C4CCC(N[C@@H]5C[C@H](C)N(C(=O)CC)c6ccccc65)CC4)c3)cc2)C[C@@H]1C (relative stereo) [Compound 8o, (1R,4r)-4-(((2S*,4R*)-2-Methyl-1-propionyl-1,2,3,4-tetrahydroquinolin-4-yl)amino)-N-(2-(4-(4-(((2S,4R)-2-methyl-1-propionyl-1,2,3,4-tetrahydroquinolin-4-yl)amino)phenyl)-1H-pyrazol-1-yl)ethyl)cyclohexane-1-carboxamide] | 0.49 |
| CCC(=O)N1c2ccccc2[C@H](Nc2ccc(C(=O)NCCCNC(=O)c3ccc(C4=N[C@@H](CC(=O)OCCO)c5nnc(C)n5-c5sc(C)c(C)c54)cc3)cc2)C[C@@H]1C [Compound 13g, 2-Hydroxyethyl 2-((S)-2,3,9-trimethyl-4-(4-((3-(4-(((2S,4R)-2-methyl-1-propionyl-1,2,3,4-tetrahydroquinolin-4-yl)amino)benzamide)propyl)carbamoyl)phenyl)-6H-thieno[3,2-f][1,2,4]triazolo[4,3-a][1,4]diazepin-6-yl)acetate] | 1.7 |
| CCC(=O)N1c2ccccc2[C@H](Nc2ccc(-c3nc(CNC(=O)C4CCC(N[C@@H]5C[C@H](C)N(C(=O)CC)c6ccccc65)CC4)no3)cc2)C[C@@H]1C (relative stereo) [Compound 8k, (1R,4R)-4-(((2S*,4R*)-2-Methyl-1-propionyl-1,2,3,4-tetrahydroquinolin-4-yl)amino)-N-((5-(4-(((2S,4R)-2-methyl-1-propionyl-1,2,3,4-tetrahydroquinolin-4-yl)amino)phenyl)-1,2,4-oxadiazol-3-yl)methyl)cyclohexane-1-carboxamide] | 0.26 |
| CCC(=O)N1c2ccccc2[C@H](Nc2ccc(C(=O)NCC3(N[C@H]4CC[C@H](N[C@@H]5C[C@H](C)N(C(=O)CC)c6ccccc65)CC4)COC3)cc2)C[C@@H]1C [Compound 7j, 4-(((2S,4R)-2-Methyl-1-propionyl-1,2,3,4-tetrahydroquinolin-4-yl)amino)-N-((3-(((1R,4R)-4-(((2S,4R)-2-methyl-1-propionyl-1,2,3,4-tetrahydroquinolin-4-yl)amino)cyclohexyl)amino)oxetan-3-yl)methyl)benzamide] | 64 |
| CCC(=O)N1c2ccccc2[C@H](Nc2ccc(NC(=O)N3CC(NC(=O)C4CCC(N[C@@H]5C[C@H](C)N(C(=O)CC)c6ccccc65)CC4)C3)cc2)C[C@@H]1C (stereo partly drawn) [Compound 7a, 3-((1R,4r)-4-(((2S,4R)-2-Methyl-1-propionyl-1,2,3,4-tetrahydroquinolin-4-yl)amino)cyclohexane-1-carboxamide)-N-(4-(((2S,4R)-2-methyl-1-propionyl-1,2,3,4-tetrahydroquinolin-4-yl)amino)phenyl)azetidine-1-carboxamide] | 10.8 |
| CCC(=O)N1c2ccccc2[C@H](Nc2ccc(NC(=O)CCCC(=O)NC3CCC(Oc4ccc(NS(=O)(=O)CC)cc4-c4cn(C)c(=O)cc4OC)CC3)cc2)C[C@@H]1C (stereo partly drawn) [Compound 16l, N^1-((1r,4r)-4-(4-(Ethylsulfonamide)-2-(4-methoxy-1-methyl-6-oxo-1,6-dihydropyridin-3-yl)phenoxy)cyclohexyl)-N5-(4-(((2S,4R)-2-methyl-1-propionyl-1,2,3,4-tetrahydroquinolin-4-yl)amino)phenyl)glutaramide] | 89.8 |
| CCC(=O)N1c2ccccc2[C@H](Nc2ccc(NC(=O)CCNS(=O)(=O)c3ccc(N[C@@H]4C[C@H](C)N(C(=O)CC)c5ccccc54)cc3)cc2)C[C@@H]1C [Compound 6e, N-(4-(((2S,4R)-2-Methyl-1-propionyl-1,2,3,4-tetrahydroquinolin-4-yl)amino)phenyl)-3-((4-(((2S,4R)-2-methyl-1-propionyl-1,2,3,4-tetrahydroquinolin-4-yl)amino)phenyl)sulfonamide)propanamide] | 4.31 |
